Reference: article PMC3495175 (Bioorganic & medicinal chemistry, 2012)

Tests used:
[1] = target: MtMetAP1c (Mycobacterium tuberculosis, UniProt P9WK19); assay: MtMetAP1c coupled enzyme assay; type: biochemical; conditions: for IC50: IC50 (µM), MtMetAP 1c, 100 nM enzyme
[2] = target: MtMetAP1a (Mycobacterium tuberculosis, UniProt P9WK21); assay: MtMetAP1a coupled enzyme assay; type: biochemical; conditions: for IC50: IC50 (µM), MtMetAP 1a, 200 nM enzyme; for Inhibition of MtMetAP1a (in words): both metalloforms (Co2+, Mn2+)
MtMetAP1a, sequence (P9WK21 whole entry): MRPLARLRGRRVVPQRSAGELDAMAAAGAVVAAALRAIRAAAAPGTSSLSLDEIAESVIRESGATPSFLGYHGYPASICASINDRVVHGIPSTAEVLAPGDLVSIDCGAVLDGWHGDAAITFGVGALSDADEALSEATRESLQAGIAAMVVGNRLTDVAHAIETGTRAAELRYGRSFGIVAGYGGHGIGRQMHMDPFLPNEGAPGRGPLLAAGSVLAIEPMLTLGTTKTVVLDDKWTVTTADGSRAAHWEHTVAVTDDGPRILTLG

[3] = Mn2+, Mn2+ cofactor (10 µM MnCl2)
[4] = Co2+, Co2+ cofactor (10 µM CoCl2)

MtMetAP1c, sequence (P9WK19 whole entry): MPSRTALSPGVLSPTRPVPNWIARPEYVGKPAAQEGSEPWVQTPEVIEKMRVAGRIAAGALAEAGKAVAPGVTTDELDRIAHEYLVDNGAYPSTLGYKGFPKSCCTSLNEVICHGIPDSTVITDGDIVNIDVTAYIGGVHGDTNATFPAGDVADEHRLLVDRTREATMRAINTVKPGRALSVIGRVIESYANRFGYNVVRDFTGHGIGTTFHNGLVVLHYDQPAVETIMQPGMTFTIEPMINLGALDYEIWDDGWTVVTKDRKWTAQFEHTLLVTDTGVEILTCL

SMILES: CN(C)/C=N/c1nc2c(s1)CCc1ccccc1-2 [3a]
- IC50 [1, 3]: > 50 µM

SMILES: Nc1nc2c(s1)CCc1ccccc1-2 [3n, reference compound]
- IC50 [1, 4]: > 50 µM
- IC50 [1, 3]: > 50 µM
- IC50 [2, 4]: > 50 µM
- IC50 [2, 3]: > 50 µM

SMILES: COc1ccc2c(c1)CCc1sc(N)nc1-2 [3o, reference compound]
- IC50 [1, 4]: > 50 µM
- IC50 [1, 3]: > 50 µM
- IC50 [2, 4]: > 50 µM
- IC50 [2, 3]: > 50 µM

SMILES: COc1ccc2c(c1)CCc1sc(NC(C)=O)nc1-2 [3p, reference compound]
- IC50 [1, 4]: > 50 µM
- IC50 [1, 3]: > 50 µM
- IC50 [2, 4]: > 50 µM
- IC50 [2, 3]: > 50 µM

SMILES: CCCCCCCCC(=O)Nc1nc2c(s1)CCc1ccccc1-2 [3q, reference compound]
- IC50 [1, 4]: > 50 µM
- IC50 [1, 3]: > 50 µM
- IC50 [2, 4]: > 50 µM
- IC50 [2, 3]: > 50 µM

SMILES: CCCCCCCCC(=O)Nc1nc2c(s1)CCc1cc(OC)ccc1-2 [3r, reference compound]
- IC50 [1, 4]: > 50 µM
- IC50 [1, 3]: > 50 µM
- IC50 [2, 4]: > 50 µM
- IC50 [2, 3]: > 50 µM

SMILES: COc1ccc2c(c1)CCc1sc(NC(=O)[C@H](C)O)nc1-2 [3s, (S)-2-Hydroxy-N-(7-methoxy-4H,5H-naphtho[1,2-d]thiazol-2-yl)propanamide]
- IC50 [1, 4]: > 50 µM
- IC50 [1, 3]: > 50 µM
- IC50 [2, 4]: > 50 µM
- IC50 [2, 3]: > 50 µM

SMILES: COc1ccc2c(c1)CCc1sc(/N=C/c3ccco3)nc1-2 [3t]
- IC50 [1, 4]: > 50 µM
- IC50 [1, 3]: > 50 µM
- IC50 [2, 4]: > 50 µM
- IC50 [2, 3]: > 50 µM

SMILES: COc1ccc2c(c1)CCc1sc(NCc3ccco3)nc1-2 [3u, N-(Furan-2-ylmethyl)-7-methoxy-4H,5H-naphtho[1,2-d]thiazol-2-amine]
- IC50 [1, 4]: > 50 µM
- IC50 [1, 3]: > 50 µM
- IC50 [2, 4]: > 50 µM
- IC50 [2, 3]: > 50 µM

SMILES: COc1ccc2c(c1)CCc1sc(/N=C/c3ccccc3O)nc1-2 [3v]
- IC50 [1, 4]: > 50 µM
- IC50 [1, 3]: > 50 µM
- IC50 [2, 4]: > 50 µM
- IC50 [2, 3]: > 50 µM

SMILES: O/N=C\Nc1nc2c(s1)CCc1ccccc1-2 [4a]
- IC50 [1, 3]: > 50 µM
- IC50 [2, 3]: > 50 µM

SMILES: COc1ccc2c(c1)-c1nc(NC=NO)sc1CC2 [4b, N'-hydroxy-N-(8-methoxy-4H,5H-naphtho[1,2-d]thiazol-2-yl)methanimidamide]
- IC50 [2, 3]: > 50 µM

SMILES: COc1ccc2c(c1)CCc1sc(N/C=N\O)nc1-2 [4c, N'-hydroxy-N-(7-methoxy-4H,5H-naphtho[1,2-d]thiazol-2-yl)methanimidamide]
- IC50 [1, 3]: > 50 µM
- IC50 [2, 3]: > 50 µM

SMILES: COc1cc2c(cc1OC)-c1nc(N/C=N\O)sc1CC2 [4e]
- IC50 [1, 3]: > 50 µM

SMILES: O/N=C\Nc1nc2c(s1)CCc1cc3c(cc1-2)OCO3 [4f]
- IC50 [2, 3]: > 20 µM

SMILES: COc1ccc2c(c1)OCc1sc(N/C=N\O)nc1-2 [4g]
- Inhibition of MtMetAP1c (in words) [1]: did not inhibit
- IC50 [1, 4]: > 50 µM
- IC50 [1, 3]: > 50 µM
- Inhibition of MtMetAP1a (in words) [2]: moderate inhibition

SMILES: O/N=C\Nc1nc2c(s1)COc1cc3c(cc1-2)OCO3 [4h]
- IC50 [2, 3]: > 10 µM

SMILES: COc1ccc2c(c1)OC(c1ccccc1)c1sc(N/C=N\O)nc1-2 (stereo not shown) [4i]
- Inhibition of MtMetAP1c (in words) [1]: did not inhibit
- IC50 [1, 4]: > 50 µM
- IC50 [1, 3]: > 50 µM
- Inhibition of MtMetAP1a (in words) [2]: moderate inhibition

SMILES: O/N=C\Nc1nc2c(s1)CCCc1cc3c(cc1-2)OCO3 [4j]
- IC50 [2, 3]: > 50 µM

SMILES: COc1ccc2c(c1)Cc1sc(N/C=N\O)nc1-2 [4l]
- IC50 [1, 4]: > 50 µM
- IC50 [1, 3]: > 50 µM
- IC50 [2, 4]: > 50 µM
- IC50 [2, 3]: > 50 µM

SMILES: COc1ccc(-c2csc(N/C=N\O)n2)cc1OC [4m]
- Inhibition of MtMetAP1c (in words) [1]: moderate potency
- IC50 [2, 4]: > 20 µM
- IC50 [2, 3]: > 20 µM
